Results from patent US20260053716A1, “COMPOSITION FOR DENTIN ADHESION AND COMPOSITION FOR PULP RESTORATION, EACH COMPOSITION CONTAINING CPNE7-DERIVED PEPTIDE” (HYSENSBIO CO., LTD, priority 2022, published 2026).
Ends that are not written are not given here.

Assay: Observation of dentinal tubule permeability by confocal microscopy
Assay type: in vitro ADME
Details: rhodamine-attached KH001 in ABU, applied about 30 seconds to coronal surface of extracted human tooth
Description: The composition for dentin adhesion prepared according to Example 2-1-1 of the present invention was applied to extracted human teeth to observe dentinal tubule permeability. The extracted human teeth were impacted human third molars from patients aged 18 to 22, provided by the Seoul National University Dental Hospital. The experimental protocol was approved by the Institutional Review Board (IRB; IRB Number: S-D20140007), and prior consent was obtained from all patients.
The crown of the extracted human tooth was transversely cut using a diamond saw to expose the dentinal tubule, and then the exposed human tooth was treated. A composition for dentin adhesion prepared according to Example 2-1-1 containing the KH001 peptide (SEQ ID NO: 96), to which rhodamine was attached as a fluorescent dye, was applied to the coronal surface of the extracted human tooth.
The composition for dentin adhesion was applied without a brushing process or an air-drying process and left for about 30 seconds for photopolymerization, and then confocal images were taken.

KYKQKRRSYK [KH001, KYKQKRRSYK]
dentinal tubule permeability (whether KH001 reached the pulp): flowed well into the pulp cavity along the dentinal tubule
